Patent publication US8859580B2 (Boehringer Ingelheim International GmbH, priority 2007, dated 2014)
Like-named read-outs stand apart in the source and are kept apart here.

Biological target: T1, 11β-HSD1 (Homo sapiens, UniProt P28845)
T1 construct: detecting cortisol generated from cortisterone by human liver microsomes; from tissue; host or cells: human liver microsomes
Assay: In vitro inhibition of 11β-HSD1, HTRF detection of cortisol generated from cortisone by human liver microsomes
Format: biochemical
Conditions: 1 hour at 37° C., pH 6.0, NADPH 200 μM, cortisone 80 nM, inhibition relative to carbenoxolone signal
Procedure: Cortisol generated in the reaction is then detected with a competitive immunoassay, involving two HTRF conjugates: cortisol linked to XL665 and anti-cortisol antibody labeled with Europium cryptate. The incubation period for detection reaction was typically 2 hours. […] The ratio of the two emission signals is then calculated (Em665*10000/Em615). […] Each assay also contained a calibration curve with cortisol to transform the fluorescent data into cortisol concentrations. Percent inhibition of each compound was determined relative to the carbenoxolone signal and IC50 curves were generated.

T1 sequence (P28845 whole entry): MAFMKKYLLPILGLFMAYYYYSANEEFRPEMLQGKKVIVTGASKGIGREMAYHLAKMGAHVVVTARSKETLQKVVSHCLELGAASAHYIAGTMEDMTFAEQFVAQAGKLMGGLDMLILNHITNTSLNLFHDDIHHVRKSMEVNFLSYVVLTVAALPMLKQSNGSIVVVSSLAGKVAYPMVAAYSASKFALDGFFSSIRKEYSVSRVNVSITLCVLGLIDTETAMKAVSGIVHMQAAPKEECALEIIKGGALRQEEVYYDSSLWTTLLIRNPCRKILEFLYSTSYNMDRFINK

SMILES	IC50 (11β-HSD IC50 (nM)) [nM]	IC50 (read-out: 11β-HSD IC50) [nM]
CC(C)(C)c1nc2cc3c(cc2o1)C[C@H]1N(C(=O)c2ccc4nc[nH]c4c2)CC[C@]3(C)C1(C)C [Example 312, (3H-Benzoimidazol-5-yl)-[(6R,10S)-2-tert-butyl-5,6,7,8,9,10-hexahydro-10,12,12-trimethyl-6,10-methano-oxazolo[4,5-i][3]benzazocin-7-yl]-methanone]	103	
CC(O)(c1ccc(C(=O)N2CC[C@@]3(C)c4cccc(O)c4C[C@@H]2C3(C)C)cc1)C(F)(F)F (stereo partly drawn) [Example 16, [(2R,6S)-10-Hydroxy-6,11,11-trimethyl-1,2,5,6-tetrahydro-4H-2,6-methano-benzo[d]azocin-3-yl]-[4-(2,2,2-trifluoro-1-hydroxy-1-methyl-ethyl)-phenyl]-methanone]	360	
CC1(C)[C@H]2Cc3c(O)cccc3[C@]1(C)CCN2C(=O)c1ccc(C(=O)N2CCCCC2)cc1 [Example 169, [(2R,6S)-10-Hydroxy-6,11,11-trimethyl-1,2,5,6-tetrahydro-4H-2,6-methano-benzo[d]azocin-3-yl]-[4-(piperidine-1-carbonyl)-phenyl]-methanone]	950	
CC1(C)[C@H]2Cc3c(cccc3S(C)(=O)=O)[C@]1(C)CCN2C(=O)c1ccc2nc[nH]c2c1 [Example 234, (3H-Benzoimidazol-5-yl)-[(2R,6S)-10-methanesulfonyl-6,11,11-trimethyl-1,2,5,6-tetrahydro-4H-2,6-methano-benzo[d]azocin-3-yl)-methanone]	3120	
CN(Cc1ccccc1)C(=O)c1ccc(C(=O)N2CC[C@@]3(C)c4cccc(O)c4C[C@@H]2C3(C)C)cc1 [Example 170, N-Benzyl-4-[(2R,6S)-10-hydroxy-6,11,11-trimethyl-1,2,5,6-tetrahydro-4H-2,6-methano-benzo[d]azocine-3-carbonyl]-N-methyl-benzamide]	626	
N#CC12CCN(C(=O)c3ccc4ncsc4c3)C(Cc3ccc(O)cc31)C2 (stereo not shown) [Example 177, 3-(Benzothiazole-6-carbonyl)-8-hydroxy-2,3,4,5-tetrahydro-1H-2,6-methano-benzo[d]azocine-6-carbonitrile]	8910	
CC1(C)[C@H]2Cc3c(O)cccc3[C@]1(C)CCN2C(=O)c1ccc(CN2CCC(O)CC2)cc1 [Example 190, [4-(4-Hydroxy-piperidin-1-ylmethyl)-phenyl]-[(2R,6S)-10-hydroxy-6,11,11-trimethyl-1,2,5,6-tetrahydro-4H-2,6-methano-benzo[d]azocin-3-yl]-methanone]	1650	
C[C@@H]1[C@H]2Cc3ccc(-c4ccc(=O)n(C)n4)cc3[C@]1(C)CCN2C(=O)c1ccc2nc[nH]c2c1 [Example 290, 6-[(2R,6R,11S)-3-(3H-Benzoimidazole-5-carbonyl)-6,11-dimethyl-1,2,3,4,5,6-hexahydro-2,6-methano-benzo[d]azocin-8-yl]-2-methyl-2H-pyridazin-3-one]	72	
CC1(C)[C@H]2Cc3c(O)cccc3[C@]1(C)CCN2C(=O)c1ccncc1 [Example 126, [(2R,6S)-10-Hydroxy-6,11,11-trimethyl-1,2,5,6-tetrahydro-4H-2,6-methano-benzo[d]azocin-3-yl]-pyridin-4-yl-methanone]	1270	
CC12CCN(C(=O)c3ccc4nc[nH]c4c3)C(Cc3cc(C(N)=O)ccc31)C2(C)C (stereo not shown) [Example 163, 3-(3H-Benzoimidazole-5-carbonyl)-6,11,11-trimethyl-1,2,3,4,5,6-hexahydro-2,6-methano-benzo[d]azocine-9-carboxylic acid amide]	249	
Cc1cc2c(cc1O)[C@]1(C)CCN(C(=O)c3ccc4nc[nH]c4c3)[C@H](C2)C1(C)C (stereo in doubt) [Example 65, (3H-Benzoimidazol-5-yl)-[(2R,6S)-8-hydroxy-6,9,11,11-tetramethyl-1,2,5,6-tetrahydro-4H-2,6-methano-benzo[d]azocin-3-yl]-methanone]	29	
COc1cccc2c1CC1N(C(=O)c3ccc4nc[nH]c4c3)CCC2C1(C)C (stereo not shown) [Example 146, (3H-Benzoimidazol-5-yl)-(10-methoxy-11,11-dimethyl-1,2,5,6-tetrahydro-4H-2,6-methano-benzo[d]azocin-3-yl)-methanone]	384	
CCC12CCN(C(=O)c3ccc4nc[nH]c4c3)C(Cc3ccc(O)cc31)C2(C)C (stereo not shown) [Example 89, (3H-Benzoimidazol-5-yl)-(6-ethyl-8-hydroxy-11,11-dimethyl-1,2,5,6-tetrahydro-4H-2,6-methano-benzo[d]azocin-3-yl)-methanone]	62	
CNC(=O)c1ccc(C(=O)N2CC[C@@]3(C)c4cccc(O)c4C[C@@H]2C3(C)C)cc1 [Example 36, 4-[(2R,6S)-10-Hydroxy-6,11,11-trimethyl-1,2,5,6-tetrahydro-4H-2,6-methano-benzo[d]azocine-3-carbonyl]-N-methyl-benzamide]	3660	
CNc1ccc(C(=O)N2CC[C@@]3(C)c4cccc(O)c4C[C@@H]2C3(C)C)cc1 [Example 48, [(2R,6S)-10-Hydroxy-6,11,11-trimethyl-1,2,5,6-tetrahydro-4H-2,6-methano-benzo[d]azocin-3-yl]-(4-methylamino-phenyl)-methanone]	364	
CC(O)(c1ccc2c(c1)[C@]1(C)CCN(C(=O)c3ccc4nc[nH]c4c3)[C@H](C2)C1(C)C)C(F)(F)F (stereo partly drawn) [Example 344, (3H-Benzoimidazol-5-yl)-[(2R,6S)-6,11,11-trimethyl-8-(2,2,2-trifluoro-1-hydroxy-1-methyl-ethyl)-1,2,5,6-tetrahydro-4H-2,6-methano-benzo[d]azocin-3-yl]-methanone]	35	
O=C(c1ccc2nc[nH]c2c1)N1CC[C@@H]2C[C@H]1Cc1cccnc12 (racemic) [Example 325, (3H-Benzoimidazol-5-yl)-(5,8,9,10-tetrahydro-6H-6,10-methano-pyrido[3,2-d]azocin-7-yl)-methanone]		771
O=C(c1ccc2nc[nH]c2c1)N1CCC2(c3ccccc3)CC1Cc1ccc(O)cc12 (stereo not shown) [Example 149, (3H-Benzoimidazol-5-yl)-(8-hydroxy-6-phenyl-1,2,5,6-tetrahydro-4H-2,6-methano-benzo[d]azocin-3-yl)-methanone]	374	
CC1C2Cc3ccc(O)cc3C1(C)CCN2C(=O)c1ccccc1 (stereo not shown) [Example 105, (8-Hydroxy-6,11-dimethyl-1,2,5,6-tetrahydro-4H-2,6-methano-benzo[d]azocin-3-yl)-phenyl-methanone]	1330	
C[C@@H]1[C@H]2Cc3cc(C#N)c(O)cc3[C@]1(C)CCN2C(=O)c1ccc2nc[nH]c2c1 [Example 223, (2R,6R,11S)-3-(3H-Benzoimidazole-5-carbonyl)-8-hydroxy-6,11-dimethyl-1,2,3,4,5,6-hexahydro-2,6-methano-benzo[d]azocine-9-carbonitrile]	106	
COc1ccc2c(c1)C1CCN(C(=O)c3ccc4nc[nH]c4c3)C1C2 (stereo not shown) [Example 321, (3H-Benzoimidazol-5-yl)-(5-methoxy-3,3a,8,8a-tetrahydro-2H-1-aza-cyclopenta[a]inden-1-yl)-methanone]		1170
C[C@H]1[C@@H]2Cc3ccc(O)cc3[C@@]1(C)CCN2C(=O)c1ccc2nc[nH]c2c1 [Example 53, (3H-Benzoimidazol-5-yl)-[(2S,6S,11R)-8-hydroxy-6,11-dimethyl-1,2,5,6-tetrahydro-4H-2,6-methano-benzo[d]azocin-3-yl]-methanone]	321	
